Reference: patent publication US20040005294A1, “IGFBP-3 in the diagnosis and treatment of cancer” (priority 2002, published 2004)

What was measured:
Assay type in all cases: cell-based, human
1198 and 1170-1 cells = experiment: Apoptosis by TUNEL and DNA fragmentation, 1198 and 1170-1 cells; conditions: treatment for 1 day
Description: […] Apoptosis was assessed by morphology, by a flow cytometry-based, modified terminal deoxynucleotidyl transferase dUTP nick end labeling (TUNEL) assay, and by the detection of fragmented DNA. For morphology, live cells were observed by light microscopy using a ×100 objective. For TUNEL analysis, both adherent and nonadherent cells were harvested and pooled, fixed with 1% paraformaldehyde and 70% ethanol, and processed using the APO-BrdU staining kit (Phoenix Flow Systems, San Diego, Calif.), a modified TUNEL assay, as described (Lee et al., 2002). Cells treated with DMSO were used to gate the control nonapoptotic populations and as a reference for cells treated with deguelin. An internal control (HL-60 cells treated with camptothecin to induce apoptosis) provided in the apoptosis detection kit was also used to ensure that the TUNEL reaction was occurring during the staining procedure. For the detection of fragmented nucleosomal DNA, cells were processed using the TACS apoptotic DNA laddering kit (Trevigen Inc., Gaithersburg, Md.), according to the manufacturer's recommended protocol.

1799 cells = experiment: Apoptosis by APO-BrdU (modified TUNEL) flow cytometry, 1799 cells
Description: (§1) NHBE, premalignant (1799 and 1198), and malignant (1170-1) HBE (2×10^6) cells were exposed to various doses of deguelin or to DMSO (0.1%) for 3 days. Apoptosis was assessed by morphology, by a flow cytometry-based, modified terminal deoxynucleotidyl transferase dUTP nick end labeling (TUNEL) assay, and by the detection of fragmented DNA. For morphology, live cells were observed by light microscopy using a ×100 objective. For TUNEL analysis, both adherent and nonadherent cells were harvested and pooled, fixed with 1% paraformaldehyde and 70% ethanol, and processed using the APO-BrdU staining kit (Phoenix Flow Systems, San Diego, Calif.), a modified TUNEL assay, as described (Lee et al., 2002). Cells treated with DMSO were used to gate the control nonapoptotic populations and as a reference for cells treated with deguelin. An internal control (HL-60 cells treated with camptothecin to induce apoptosis) provided in the apoptosis detection kit was also used to ensure that the TUNEL reaction was occurring during the staining procedure. For the detection of fragmented nucleosomal DNA, cells were processed using the TACS apoptotic DNA laddering kit (Trevigen Inc., Gaithersburg, Md.), according to the manufacturer's recommended protocol.
(§2) To determine whether deguelin-induced antiproliferative effects on premalignant HBE cells were mediated through the inhibition of the PI3K/Akt pathway, 2×10^5 1799 cells/well or 1×10 ^6 squamous HBE cells/well in six-well plates were infected with 5×10 ^3 particles/cell of a control virus (Ad5CMV) or with 1×10^3 or 5×10^3 particles/cell of Ad5CMV-MyrAkt-HA, an adenoviral vector that expresses a constitutively active Akt. (MyrAkt) in KSFM. After 1 day of infection, cells were treated with 10^−7M or 10^−6M deguelin, 2×10^−6 M or 4×10^−6M N-(4-hydroxyphenyl)retinamide (4-HPR), or 0.1% DMSO as a control and then incubated for 1 or 2 days. Apoptosis was analyzed using the APO-BrdU staining kit for TUNEL, Western blot analyses for caspase-3, and the cleavage of PARP.

[1] = test system: 1799, 1198 and 1170-1 cells; experiment: Cell cycle analysis by flow cytometry, HBE cell lines; conditions: 10^−8 M or 10^−7 M, 3 days
Description: (§3) NHBE and 1799 cells were plated at a concentration of 2×10^5 cells/well in six-well plates. The next day, cells were treated with deguelin (various concentrations) or DMSO (0.1%) for 3 days to achieve maximal antiproliferative effects (determined from growth curves). All cells (nonadherent and adherent) were harvested, fixed with 1% paraformaldehyde and 70% ethanol, stained with 50 μg/mL propidium iodide, and subjected to flow cytometric analysis to determine the percentage of cells in specific phases of the cell cycle (G1, S, and G2/M) as described (Sun et al., 1997). Flow cytometric analysis was performed using a Coulter EPICS Profile II flow cytometer (Coulter Corp., Miami, Fla.) equipped with a 488-nm argon laser. Approximately 10 000 events (cells) were evaluated for each sample. Two independent experiments were performed and one is presented.

squamous HBE cells [2] = experiment: Immunoblot of pAkt, pGSK-3β, caspase-3 and PARP, squamous HBE cells
Description: Whole cell lysates from 1×10^6 cells were prepared in lysis buffer as described (Lonardo et al., 2002). Equivalent amounts of protein were resolved by sodium dodecyl sulfate (SDS)-polyacrylamide gels (7.5%-12%) and transferred to a nitrocellulose membrane. After the membrane was blocked in Tris-buffered saline (TBS) containing 0.05% Tween 20 (TBST) and 5% (w/v) nonfat powdered milk, the membrane was incubated with primary antibody at the appropriate dilution in TBS-5% nonfat milk at 4° C. for 16 h. The membrane was then washed multiple times with TBST and incubated with the appropriate horseradish peroxidaseconjugated secondary antibody for 1 h at room temperature. The protein-antibody complexes were detected by enhanced chemilurminescence (ECL kit; Amersham, Arlington Heights, Ill.), according to the manufacturer's recommended protocol.
as §2, with “(MyrAkt) in KSFM. After 1 day of infection, cells were treated with 10^−7M or 10^−6M deguelin, 2×10^−6 M or 4×10^−6M N-(4-hydroxyphenyl)retinamide (4-HPR), or 0.1% DMSO as a control and then incubated for 1 or 2 days.” left out

NHBE cells [3] = experiment: Cell cycle analysis by flow cytometry, NHBE cells; conditions: 10^−7 M, 3 days
Description: as §3

NHBE cells [4] = experiment: Apoptosis by TUNEL and DNA fragmentation, NHBE cells
Description: as §1

squamous HBE cells [5] = experiment: MTT proliferation assay, squamous HBE cells; conditions: 1 day

**Q.** For `COc1cc2c(cc1OC)[C@@H]1C(=O)c3ccc4c(c3O[C@@H]1CO2)C=CC(C)(C)O4` [deguelin, Deguelin], which apoptotic events (1198 and 1170-1 cells) is on record?
**A.** did not induce detectable apoptotic events

**Q.** And the cells undergoing apoptosis (1799 cells; 10^−7 M, 2 days, 1799 cells infected with Ad5CMV-MyrAkt-HA)?
**A.** less than 10%

**Q.** What about the cells undergoing apoptosis (1799 cells; 10^−7 M, 2 days, 1799 cells uninfected or infected with control adenovirus) of the same molecule?
**A.** approximately 40%

**Q.** And the cells undergoing apoptosis (1799 cells; 10^−7 M, 3 days)?
**A.** 92.2%

**Q.** And the cells undergoing apoptosis (1799 cells; 10^−8 M, 3 days)?
**A.** 68.5%

**Q.** And the cells undergoing apoptosis (1799 cells; 10^−9 M, 3 days)?
**A.** approximately 3.3%

**Q.** And the cell cycle distribution [1]?
**A.** accumulated in the G2/M phase

**Q.** What about the “levels of pAkt and pGSK-3β” value (squamous HBE cells [2]) of the same molecule?
**A.** decreased the levels of pAkt and pGSK-3β in a time-dependent manner

**Q.** And the PARP cleavage (squamous HBE cells [2]; 10^−9 M to 10^−7 M, 1 day)?
**A.** increased PARP cleavage

**Q.** And the cell cycle distribution (NHBE cells [3])?
**A.** No detectable cell cycle changes

**Q.** And the “apoptosis (TUNEL, DNA fragmentation)” value (NHBE cells [4])?
**A.** neither a TUNEL-positive cell population nor fragmented DNA

**Q.** And the “proliferation of control squamous HBE cells” value (squamous HBE cells [5]; 10^−7 M or 10^−6 M)?
**A.** decreased proliferation of control squamous HBE cells in a dose-dependent manner

**Q.** And the “growth as percent of untreated cells” value (squamous HBE cells [5]; squamous HBE cells overexpressing constitutively active Akt, 10^−7 M to 10^−6 M)?
**A.** approximately 95%
